Data set [1] is described as follows: Precipitation after preparation of liquid lenalidomide compositions. The class given is physicochemical. The settings on record: a few minutes after lenalidomide was dissolved in an aqueous buffer at pH between 1.0 and 3.5. The procedure: A composition was prepared according to example 23 of WO 1998/03502. The solution contained 5.0 g lenalidomide, 22.5 g sodium chloride, 300.0 g phosphate buffer with pH 7.4 and demineralized water. The pH of the final composition was 7.4.
Similar results (i.e. precipitation) were obtained a few minutes after lenalidomide was dissolved in an aqueous buffer at pH between 1.0 and 3.5.
Thus, the composition of Trial 0 was not subjected to the stability study.
The composition of trial 4 was not subjected to the stability study.

The conditions of data set [2]: 0.1 N HCl aqueous solution (pH around 1); cited from earlier work.

Converted amounts (≈) assume the structure as drawn.

Take `Nc1cccc2c1CN(C1CCC(=O)NC1=O)C2=O` (racemic) [Lenalidomide, 1-oxo-(2,6-dioxopiperidin-3-yl)-4-aminoisoindoline]: in data set [1], the precipitation after dissolution entry is reported as “precipitation”. Also, in data set [2], the solubility (in general, how much of the substance goes into solution per volume) was 18.0 mg/mL (≈ 69.4 mM).

The record behind these values is US20250073220A1, “ORAL SOLUTION COMPRISING LENALIDOMIDE” (A FINE HOUSE S.A., priority 2021, published 2025).
